Here are results for three compounds from paper PMC6681416, “Novel Derivatives of Deoxycholic Acid Bearing Linear Aliphatic Diamine and Aminoalcohol Moieties and their Cyclic Analogs at the C3 Position: Synthesis and Evaluation of Their In Vitro Antitumor Potential” (Molecules, 2019).

Like-named read-outs stand apart in the source and are kept apart here.

Data set [1] has as its system non-transformed human fibroblasts hFF3. As to the kind of experiment: MTT cytotoxicity assay, hFF3. The class given is cell-based. The following applies: HFF-3, 24 h, read-out: IC50 hFF3 (fibroblast). The text has this: (§1) According to our previous data and data published by other research groups, chemical transformations of bile acids can greatly improve their antitumor potential. Thus, as the first step of evaluation of the biological activities of our novel DCA derivatives we assessed their effects on tumor cell viability. The cytotoxicity of the compounds was investigated with respect to a panel of cultured cell lines, including human duodenal HuTu-80, hepatocellular HepG2, cervical KB-3-1 and lung A549 carcinomas as well as murine macrophage RAW264.7 and non-transformed human fibroblasts hFF3 by MTT assay.
Human duodenal carcinoma HuTu-80 cells, human hepatocellular carcinoma HepG2 cells, human cervical carcinoma KB-3-1 cells, human lung carcinoma A549 cells were obtained from the Russian Cell Culture Collection (Institute of Cytology, RAS, St. Petersburg, Russia). Non-transformed human fibroblasts hFF3 were kindly provided by Dr. Olga Koval (Institute of Chemical Biology and Fundamental Medicine, SB RAS, Novosibirsk, Russia). RAW264.7 macrophages were kindly provided by Prof. Dr. Dmitry Kuprash (Engelhardt Institute of Molecular Biology, RAS, Moscow, Russia). The cells were cultured in DMEM (Sigma-Aldrich Inc., St. Louis, MO, USA) supplemented with 10% (v/v) heat-inactivated fetal bovine serum (FBS) (BioloT, St. Petersburg, Russia), 100 U/mL penicillin (ICN Biomedicals Inc., Costa Mesa, CA, USA), 100 µg/mL streptomycin and 0.25 µg/mL amphotericin; additionally, in the case of RAW264.7 cells, concentration of glucose in the medium was increased up to 4.5 mg/mL. The cells were incubated at 37 °C in 5% CO2 and 95% air (hereafter referred to as standard conditions). […]
Cells were seeded in triplicate in 96-well plates at a density of 5 × 10^3 (HuTu-80, HepG2, KB-3-1, hFF3), 10^4 (A549) or 5 × 10^4 (RAW264.7) cells per well. […] The crystals of formazan forming within live cells were solubilized with DMSO and the absorbance was measured in a Multiscan RC plate reader (Thermo LabSystems, Helsinki, Finland) at a test and reference wavelengths of 570 nm and 620 nm, respectively. […]
(Formazan colour is commonly taken as a measure of viable cells.)

Data set [2] relates to NO synthesis by IFNγ-activated RAW264.7 cells. As to the kind of experiment: Inhibition of NO production by stimulated macrophages (Griess). The class given is cell-based, murine. The following applies: Mus musculus, RAW264.7, 24 h, read-out: IC50NO. As for the experimental part:
RAW264.7 cells were seeded in triplicate in 96-well plates at a density of 5 × 10^4 cells/well and incubated under standard conditions for 24 h. The cells were treated with 20 ng/mL of murine recombinant IFNγ (GIBCO, Gaithersburg, MD, USA), with or without (control) compounds at various concentrations for 24 h. The level of NO production was evaluated by determining the nitrite concentration in culture medium with a Griess Reagent System (Promega, Madison, WI, USA). The IC50^NO value was calculated as the derivative concentration required to decrease NO production to 50% of the non-treated control.

For data set [3], the system named is HepG2 cells. As to the kind of experiment: MTT cytotoxicity assay, HepG2. The data set is classed as cell-based, human. The following applies: for IC50: Homo sapiens, HepG2, MTT, 24 h, read-out: IC50 HepG2 (liver); for Selectivity index HepG-2: ratio IC50 hFF3 / IC50 HepG2.
Text: as §1
(§2) Human duodenal carcinoma HuTu-80 cells, human hepatocellular carcinoma HepG2 cells, human cervical carcinoma KB-3-1 cells, human lung carcinoma A549 cells were obtained from the Russian Cell Culture Collection (Institute of Cytology, RAS, St. Petersburg, Russia). Non-transformed human fibroblasts hFF3 were kindly provided by Dr. Olga Koval (Institute of Chemical Biology and Fundamental Medicine, SB RAS, Novosibirsk, Russia). RAW264.7 macrophages were kindly provided by Prof. Dr. Dmitry Kuprash (Engelhardt Institute of Molecular Biology, RAS, Moscow, Russia). The cells were cultured in DMEM (Sigma-Aldrich Inc., St. Louis, MO, USA) supplemented with 10% (v/v) heat-inactivated fetal bovine serum (FBS) (BioloT, St. Petersburg, Russia), 100 U/mL penicillin (ICN Biomedicals Inc., Costa Mesa, CA, USA), 100 µg/mL streptomycin and 0.25 µg/mL amphotericin; additionally, in the case of RAW264.7 cells, concentration of glucose in the medium was increased up to 4.5 mg/mL. The cells were incubated at 37 °C in 5% CO2 and 95% air (hereafter referred to as standard conditions). DCA derivatives were dissolved in DMSO to yield stock solutions of 10 mmol/L and stored at −20 °C prior to use.
(§3) Cells were seeded in triplicate in 96-well plates at a density of 5 × 10^3 (HuTu-80, HepG2, KB-3-1, hFF3), 10^4 (A549) or 5 × 10^4 (RAW264.7) cells per well. Cells were incubated under standard conditions for 24 h and then they were treated with varying doses of investigated derivatives for subsequent 24 h. Then 10 µL of MTT solution (5 mg/mL) were added to each wells and cells were incubated for an additional 2 h under standard conditions. The crystals of formazan forming within live cells were solubilized with DMSO and the absorbance was measured in a Multiscan RC plate reader (Thermo LabSystems, Helsinki, Finland) at a test and reference wavelengths of 570 nm and 620 nm, respectively. […] To perform SAR analysis, hierarchical clustering of compounds based on their IC50 values was fulfilled with Euclidean distance by using the Morpheus tool (https://software.broadinstitute.org/morpheus/), a platform designed for visualization and analysis of data in a matrix format. Heatmap, containing compounds’ SI values, were constructed by using the Excel 2010 software (Microsoft, Redmond, WA, USA). In order to reveal whether ROS participate in the induction of cell death by compound 9, HuTu-80 cells cultured in 96-well plate were pretreated by NAC at 2 mM for 1 h. Thereafter, the medium was replaced by fresh medium with compound 9 at 8 µM and the cells were incubated with subsequent 24 h under standard conditions. After this time period, the curves of cytotoxicity of compound 9 in the presence or absence of NAC were compared.

Another data set concerns RAW264.7 macrophages. The data set is described as follows: MTT cytotoxicity assay, RAW264.7. The following applies: for IC50: Mus musculus, RAW264.7, MTT, 24 h, read-out: IC50 RAW264.7 (macrophage); for Selectivity index RAW264: ratio IC50 hFF3 / IC50 RAW264.7. The class given is cell-based, murine.
Text: as §1, §2, §3

Data set [4] deals with KB-3-1 cells. As to the kind of experiment: MTT cytotoxicity assay, KB-3-1. The following applies: for IC50: Homo sapiens, KB 3-1, MTT, 24 h, read-out: IC50 KB3-1 (cervix); for Selectivity index KB-3-1: ratio IC50 hFF3 / IC50 KB-3-1. The data set is classed as cell-based, human.
Text: as §1, §2, §3

The test system of data set [5] is HuTu-80 cells. The data set is described as follows: cells. The class given is cell-based. The conditions noted are these: for IC50: Homo sapiens, HuTu80, MTT, 24 h, read-out: IC50 HuTu-80 (duodenum); for Selectivity index HuTu-80: ratio IC50 hFF3 / IC50 HuTu-80.
Text: as §1, §2, §3

Data set [6] relates to panel of cultured cell lines (HuTu-80, HepG2, KB-3-1, A549, RAW264.7, hFF3). As to the kind of experiment: MTT cytotoxicity, range over the panel of tested cell lines. The data set is classed as cell-based. The following applies: 24 h, summary of Table 1 (for 2–10 partly from ref [21]).
Text: as §1
Cells were seeded in triplicate in 96-well plates at a density of 5 × 10^3 (HuTu-80, HepG2, KB-3-1, hFF3), 10^4 (A549) or 5 × 10^4 (RAW264.7) cells per well. Cells were incubated under standard conditions for 24 h and then they were treated with varying doses of investigated derivatives for subsequent 24 h. Then 10 µL of MTT solution (5 mg/mL) were added to each wells and cells were incubated for an additional 2 h under standard conditions. The crystals of formazan forming within live cells were solubilized with DMSO and the absorbance was measured in a Multiscan RC plate reader (Thermo LabSystems, Helsinki, Finland) at a test and reference wavelengths of 570 nm and 620 nm, respectively. […]

Data set [7] has as its system A549 cells. As to the kind of experiment: MTT cytotoxicity assay, A549. The class given is cell-based, human. The following applies: for IC50: Homo sapiens, A549, MTT, 24 h, read-out: IC50 A549 (lung); for Selectivity index A549: ratio IC50 hFF3 / IC50 A549.
Text: as §1, §2, §3

Data set [8] in a line: Solubility in cell culture medium. The data set is classed as physicochemical. The following applies: maximal tested concentration limited by 50 µM.
Data set [9] has as its system HepG2 cells. The arrangement: method as in PMID 28688958, PMID 26037611, PMID 28887170. The conditions noted are these: MTT, 24 h; values marked by asterisk; ref [21],[22],[23]; read-out: IC50 HepG2 (liver); cited from earlier work.
Data set [10] has as its system KB-3-1 cells. More on the design: method as in PMID 28688958, PMID 26037611, PMID 28887170. The following applies: MTT, 24 h; values marked by asterisk; ref [21],[22],[23]; read-out: IC50 KB3-1 (cervix); cited from earlier work.
In data set [11] the test system is A549 cells. More on the design: method as in PMID 28688958, PMID 26037611, PMID 28887170. The following applies: MTT, 24 h; values marked by asterisk; ref [21],[22],[23]; read-out: IC50 A549 (lung); cited from earlier work.
Data set [12] concerns non-transformed human fibroblasts hFF3. More on the design: method as in PMID 28688958, PMID 26037611, PMID 28887170. The following applies: MTT, 24 h; values marked by asterisk; ref [21],[22],[23]; read-out: IC50 hFF3 (fibroblast); cited from earlier work.
The subject of data set [13] is HuTu-80 cells. The arrangement: method as in PMID 28688958, PMID 26037611, PMID 28887170. The conditions noted are these: MTT, 24 h; values marked by asterisk; ref [21],[22],[23]; read-out: IC50 HuTu-80 (duodenum); cited from earlier work.
In data set [14] the test system is panel of cultured cell lines (HuTu-80, HepG2, KB-3-1, A549, RAW264.7, hFF3). The arrangement: method as in PMID 28688958, PMID 26037611, PMID 28887170. The following applies: MTT, 24 h; summary of Table 1 values marked by asterisk; ref [21],[22],[23]; read-out: IC50, range or lowest value over tested cell lines; cited from earlier work.

For `COC(=O)CC[C@@H](C)[C@H]1CC[C@H]2[C@@H]3CC[C@@H]4CC(O)(CNCCO)CC[C@]4(C)[C@H]3CC(=O)[C@]12C` (stereo partly drawn) [Compound 8, Methyl 3-hydroxy-3-((2-hydroxyethylamino)methyl)-12-oxo-5β-cholan-24-oate], the IC50 was 34.8 ± 1 µM in data set [1]; > 10 µM in data set [2]; 5.8 ± 1.3 µM in the data set with HepG2 cells [3]; 23.4 ± 1.2 µM in the data set with RAW264.7 macrophages; 17.7 ± 2.8 µM in the data set with KB-3-1 cells [4]; 4.4 ± 0.34 µM with HuTu-80 cells [5]. The IC50 in data set [6] was 4.4 to 34.8 µM; in the data set on A549 cells [7] it was 29.6 ± 2.5 µM. The “Selectivity index HepG-2” value with HepG2 cells [3] came to 6. Also, the “Selectivity index RAW264” value in the data set with RAW264.7 macrophages stood at 1.5. Besides, in the data set on KB-3-1 cells [4], the “Selectivity index KB-3-1” value was determined as 1.9. For the same compound, the “Selectivity index HuTu-80” value with HuTu-80 cells [5] is reported as 7.9. Further, the “Selectivity index A549” value in the data set on A549 cells [7] worked out at 1.2.
`COC(=O)CC[C@@H](C)[C@H]1CC[C@H]2[C@@H]3CC[C@@H]4CC(O)(CN5CCOCC5)CC[C@]4(C)[C@H]3CC(=O)[C@]12C` (stereo partly drawn) [Compound 10, Methyl 3-hydroxy-3-(morpholinomethyl)-12-oxo-5β-cholan-24-oate]: the IC50 in [1] was > 50 µM; in data set [2], > 10 µM; in the data set with HepG2 cells [3], 7.5 ± 1.2 µM; in the data set with RAW264.7 macrophages, > 50 µM; in the data set on KB-3-1 cells [4], 8.4 ± 0.5 µM; in the data set with HuTu-80 cells [5] it was 10 ± 0.3 µM. For the same compound, the IC50 in the data set with A549 cells [7] was > 50 µM. In the data set with HepG2 cells [3], the “Selectivity index HepG-2” value turned out to be 6.6. Also, in the data set on RAW264.7 macrophages, the “Selectivity index RAW264” value was 1. Besides, in the data set with KB-3-1 cells [4], the “Selectivity index KB-3-1” value stood at 5.9. Also, in [8], the “solubility in cell culture medium” value is given as “poorly soluble”. Also, the “Selectivity index HuTu-80” value with HuTu-80 cells [5] is given as 5. Further, in the data set on A549 cells [7], the “Selectivity index A549” value stood at 1.
For `CCN(CC)CCCNC[C@]1(O)CC[C@]2(C)C3CC(=O)[C@@]4(C)C(CC[C@@H]4[C@H](C)CCC(=O)OC)[C@@H]3CC[C@@H]2C1` (stereo partly drawn) [Compound 6], the IC50 with HepG2 cells [9] was 3.7 ± 0.17 µM; in data set [2], > 10 µM; with KB-3-1 cells [10] it was 6.7 ± 0.6 µM; in the data set with RAW264.7 macrophages it was 6.7 ± 0.5 µM; with A549 cells [11] it was 6.8 ± 0.3 µM; in data set [12] it was 6.2 ± 0.4 µM. The IC50 with HuTu-80 cells [13] is 1 ± 0.6 µM; in [14], 1 to 6.8 µM. In addition, the “Selectivity index HepG-2” value in the data set on HepG2 cells [3] was 1.7. In addition, the “Selectivity index RAW264” value with RAW264.7 macrophages was 0.9. The “Selectivity index KB-3-1” value with KB-3-1 cells [4] turned out to be 0.9. In addition, the “Selectivity index HuTu-80” value in the data set with HuTu-80 cells [5] worked out at 6.2. In addition, the “Selectivity index A549” value with A549 cells [7] worked out at 0.9.
